The text below walks through data of PubChem BioAssay (NCI).

Values joined by “and” are separate entries in the source; they are usually repeats but may differ in a detail not shown here. Equal values may be shown once.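 Assay format: 96-well plates, 48-hour exposure. GI50 = concentration required for 50% inhibition of growth. TGI marks complete inhibition of growth.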

One assay relates to KM12 colon. Put plainly: NCI anticancer screen, dose series, 48 h.
Molecule `Cc1nc(-[n+]2nc(-c3ccncc3)nn2-c2ccccc2)sc1C` came in with a TGI of more than 100 µM.

`COc1cc2c3c(n(CCCOC(=O)C(F)(F)F)c(=O)c2cc1OC)-c1cc2c(cc1C3=O)OCO2`: the GI50 is 0.0296 µM and the TGI was determined as 14.6 µM.

With `COc1cc2c(c(OC)c1OC)-c1ncc3cc4c(cc3c1C2)OCO4`, the GI50 is 18.6 µM and the TGI came to 80.1 µM.

Turning to `CCOC(=O)/C=C(/C)Sc1cc(O)c2ccccc2c1O`, the GI50 was 12.9 µM and the TGI was determined as 26.8 µM.

As to `COc1ccc(-n2c(C)cc(-c3ccccc3)c2C)cc1`, the GI50 is 2.85 µM and the TGI worked out at 35.3 µM.

Regarding `O=C(CSC1CCc2ccccc21)N/N=C/c1ccccc1O` (centres undefined), the GI50 is 3.73 µM and the TGI amounted to 23.7 µM.

The molecule `CCOc1ccncc1[N+](=O)[O-]` displayed a TGI of more than 100 µM.

`C=C1C(=O)OC2CC(C)C3(O)CCC(=O)C3(C)CC12` (centres undefined): the TGI was 42.6 µM.

`O=C(Nc1ccc(F)cc1)c1cc(S(=O)(=O)Nc2nc3ccccc3o2)c(SCc2ccccc2)cc1Cl`: the GI50 is 17.5 µM and the TGI stood at 33.9 µM.

As to `CN(CCO)c1ccc(N2Cc3ccccc3OC3=C2C(=O)c2c(O)ccc(O)c2C3=O)cn1`, the GI50 is 0.387 µM and the TGI is 1.63 µM.

On to `O=C1NC(=O)C(c2cccc([N+](=O)[O-])c2)=C1Nc1cc(Cl)c(O)c(Cl)c1`, for which the GI50 was more than 25 µM and the TGI is more than 25 µM.

`COC(=O)[C@@H](C)C[C@H](Cc1ccccc1)NC(=O)c1csc([C@@H](C[C@H](C(C)C)N(C)C(=O)[C@@H](NC(=O)[C@H]2CCCCN2C)C2CCCCC2)OC(C)=O)n1`: the GI50 was 0.000296 µM and 0.0025 µM; the TGI was more than 25 µM.

As for `NC(=O)OCCn1cc(-c2nc(-c3c[nH]c4ncccc34)cs2)c2ccccc21`, the GI50 was 1.44 µM and the TGI was found to be 9.45 µM.

`NCCSc1nc(-c2ccccc2)c(-c2ccccc2)o1` returned a TGI of more than 100 µM.

Another assay relates to ACHN renal. Put plainly: NCI anticancer screen, dose series, 48 h.
For the molecule `NC(=O)c1cc(S(=O)(=O)Nc2nnc(-c3ccccc3)c(-c3ccccc3)n2)c(SCc2ccccc2)cc1Cl`, the GI50 is more than 100 µM and the TGI was more than 100 µM.

With `Cc1cc(C)c(/C=C2\C(=O)Nc3ccc(NC(=O)CCCCCCC(=O)NO)cc32)[nH]1`, the GI50 is 6.18 µM and the TGI was more than 100 µM.

As to `C1=C\COCc2cc(ccc2OCCN2CCCC2)Nc2nccc(n2)-c2cccc(c2)COC/1`, the GI50 is 1.12 µM and the TGI is 4.8 µM.

As to `COc1ccc(-c2coc3c4c(ccc3c2=O)OCO4)cc1OC`, the TGI is more than 100 µM.

On to `CC(C)(S)C(N)C(=O)O` (centres undefined), for which the GI50 was more than 5000 µM and the TGI is more than 5000 µM.

On to `O=C1c2ccccc2-c2c1c1ccccc1c(=O)n2CCCCl`, for which the GI50 is 3.03 µM and the TGI was found to be 12.3 µM.

For the molecule `CN1C(=O)/C(=C/c2c(Cl)n(C)c3ccccc23)c2ccccc21`, the GI50 is 4.85 µM and 1.7 µM; the TGI was 3.11 µM.

Turning to `Cc1nc(-[n+]2nc(-c3ccncc3)nn2-c2ccccc2)sc1C`, the TGI was more than 100 µM.

`COc1cc2c3c(n(CCCOC(=O)C(F)(F)F)c(=O)c2cc1OC)-c1cc2c(cc1C3=O)OCO2`: the GI50 was less than 0.01 µM.

Turning to `COc1cc2c(c(OC)c1OC)-c1ncc3cc4c(cc3c1C2)OCO4`, the GI50 is 28.8 µM and the TGI turned out to be 73.6 µM.

With `CCOC(=O)/C=C(/C)Sc1cc(O)c2ccccc2c1O`, the GI50 is 2.78 µM and the TGI was 9.82 µM.

As to `COc1ccc(-n2c(C)cc(-c3ccccc3)c2C)cc1`, the GI50 was 2.82 µM and the TGI worked out at 33.3 µM.

As to `O=C(CSC1CCc2ccccc21)N/N=C/c1ccccc1O` (centres undefined), the GI50 is 2.67 µM and the TGI worked out at 20 µM.

Consider `CCOc1ccncc1[N+](=O)[O-]`, for which the TGI is more than 100 µM.

For the molecule `C=C1C(=O)OC2CC(C)C3(O)CCC(=O)C3(C)CC12` (centres undefined), the TGI is 36.2 µM.

Regarding `O=C(Nc1ccc(F)cc1)c1cc(S(=O)(=O)Nc2nc3ccccc3o2)c(SCc2ccccc2)cc1Cl`, the GI50 was 17.5 µM and the TGI was 32.2 µM.

For the molecule `CN(CCO)c1ccc(N2Cc3ccccc3OC3=C2C(=O)c2c(O)ccc(O)c2C3=O)cn1`, the GI50 is 0.0462 µM and the TGI turned out to be 0.179 µM.

For `O=C1NC(=O)C(c2cccc([N+](=O)[O-])c2)=C1Nc1cc(Cl)c(O)c(Cl)c1`, the GI50 was more than 25 µM and the TGI is more than 25 µM.

As to `COC(=O)[C@@H](C)C[C@H](Cc1ccccc1)NC(=O)c1csc([C@@H](C[C@H](C(C)C)N(C)C(=O)[C@@H](NC(=O)[C@H]2CCCCN2C)C2CCCCC2)OC(C)=O)n1`, the GI50 was 0.000746 µM and 0.0025 µM; the TGI was more than 25 µM.

As to `NC(=O)OCCn1cc(-c2nc(-c3c[nH]c4ncccc34)cs2)c2ccccc21`, the GI50 is 2.05 µM and the TGI came out at 8.24 µM.

The molecule `NCCSc1nc(-c2ccccc2)c(-c2ccccc2)o1` displayed a TGI of more than 100 µM.

In another assay the test system is K-562 leukemia. Put plainly: NCI anticancer screen, dose series, 48 h.
`CCn1c(=O)c2c(=O)c3c4c(oc3oc2c2ccccc21)C(=O)c1ccccc1C4=O`: the GI50 was 1.73 µM and the TGI was more than 100 µM.

Take `NC(=O)c1cc(S(=O)(=O)Nc2nnc(-c3ccccc3)c(-c3ccccc3)n2)c(SCc2ccccc2)cc1Cl`: the GI50 was 54.6 µM and the TGI is more than 100 µM.

For `Cc1cc(C)c(/C=C2\C(=O)Nc3ccc(NC(=O)CCCCCCC(=O)NO)cc32)[nH]1`, the GI50 was 0.373 µM and the TGI is more than 100 µM.

In the case of `C1=C\COCc2cc(ccc2OCCN2CCCC2)Nc2nccc(n2)-c2cccc(c2)COC/1`, the GI50 is 0.933 µM and the TGI was 3.65 µM.

The molecule `COc1ccc(-c2coc3c4c(ccc3c2=O)OCO4)cc1OC` had a TGI of more than 100 µM.

Turning to `CC(C)(S)C(N)C(=O)O` (centres undefined), the GI50 was 2390 µM and the TGI was more than 5000 µM.

For the molecule `O=C1c2ccccc2-c2c1c1ccccc1c(=O)n2CCCCl`, the GI50 is 12.7 µM and the TGI is more than 100 µM.

`CN1C(=O)/C(=C/c2c(Cl)n(C)c3ccccc23)c2ccccc21`: the GI50 is 3.15 µM.

The molecule `Cc1nc(-[n+]2nc(-c3ccncc3)nn2-c2ccccc2)sc1C` showed a TGI of more than 100 µM.

As to `COc1cc2c3c(n(CCCOC(=O)C(F)(F)F)c(=O)c2cc1OC)-c1cc2c(cc1C3=O)OCO2`, the GI50 was less than 0.0289 µM and the TGI was more than 100 µM.

Regarding `COc1cc2c(c(OC)c1OC)-c1ncc3cc4c(cc3c1C2)OCO4`, the GI50 was 2.27 µM and the TGI was more than 100 µM.

For `CCOC(=O)/C=C(/C)Sc1cc(O)c2ccccc2c1O`, the GI50 is 2.48 µM and the TGI is 6.68 µM.

As to `COc1ccc(-n2c(C)cc(-c3ccccc3)c2C)cc1`, the GI50 is 1.4 µM and the TGI is more than 100 µM.

Turning to `O=C(CSC1CCc2ccccc21)N/N=C/c1ccccc1O` (centres undefined), the GI50 was 4.59 µM and the TGI was more than 100 µM.

In the case of `CCOc1ccncc1[N+](=O)[O-]`, the TGI is more than 100 µM.

With `O=C(Nc1ccc(F)cc1)c1cc(S(=O)(=O)Nc2nc3ccccc3o2)c(SCc2ccccc2)cc1Cl`, the GI50 was 24.7 µM and the TGI amounted to 99.6 µM.

On to `CN(CCO)c1ccc(N2Cc3ccccc3OC3=C2C(=O)c2c(O)ccc(O)c2C3=O)cn1`, for which the GI50 is 0.0759 µM and the TGI is more than 100 µM.

Regarding `O=C1NC(=O)C(c2cccc([N+](=O)[O-])c2)=C1Nc1cc(Cl)c(O)c(Cl)c1`, the GI50 is more than 25 µM and the TGI is more than 25 µM.

As to `COC(=O)[C@@H](C)C[C@H](Cc1ccccc1)NC(=O)c1csc([C@@H](C[C@H](C(C)C)N(C)C(=O)[C@@H](NC(=O)[C@H]2CCCCN2C)C2CCCCC2)OC(C)=O)n1`, the GI50 is 0.000374 µM and 0.0025 µM; the TGI turned out to be 4.33 µM.

As to `NC(=O)OCCn1cc(-c2nc(-c3c[nH]c4ncccc34)cs2)c2ccccc21`, the GI50 is 1.55 µM and the TGI came to 14 µM.

In turn, `NCCSc1nc(-c2ccccc2)c(-c2ccccc2)o1` registered a TGI of more than 100 µM.

Another assay concerns MDA-MB-435. Put plainly: NCI anticancer screen, dose series, 48 h.
`CCn1c(=O)c2c(=O)c3c4c(oc3oc2c2ccccc21)C(=O)c1ccccc1C4=O`: the GI50 is more than 100 µM and the TGI was more than 100 µM.

As for `NC(=O)c1cc(S(=O)(=O)Nc2nnc(-c3ccccc3)c(-c3ccccc3)n2)c(SCc2ccccc2)cc1Cl`, the GI50 was more than 53.4 µM and the TGI is more than 100 µM.

As for `Cc1cc(C)c(/C=C2\C(=O)Nc3ccc(NC(=O)CCCCCCC(=O)NO)cc32)[nH]1`, the GI50 was 0.44 µM and the TGI is more than 100 µM.

In the case of `C1=C\COCc2cc(ccc2OCCN2CCCC2)Nc2nccc(n2)-c2cccc(c2)COC/1`, the GI50 was 1.53 µM and the TGI came out at 4.65 µM.

In turn, `COc1ccc(-c2coc3c4c(ccc3c2=O)OCO4)cc1OC` showed a TGI of more than 100 µM.

Regarding `CC(C)(S)C(N)C(=O)O` (centres undefined), the GI50 was 1890 µM and the TGI is more than 5000 µM.

Take `O=C1c2ccccc2-c2c1c1ccccc1c(=O)n2CCCCl`: the GI50 is 28 µM and the TGI was more than 100 µM.

As for `CN1C(=O)/C(=C/c2c(Cl)n(C)c3ccccc23)c2ccccc21`, the GI50 is 1.89 µM and 1.69 µM; the TGI is 4 µM and 3.13 µM.

`Cc1nc(-[n+]2nc(-c3ccncc3)nn2-c2ccccc2)sc1C`: the TGI is more than 100 µM.

As to `COc1cc2c3c(n(CCCOC(=O)C(F)(F)F)c(=O)c2cc1OC)-c1cc2c(cc1C3=O)OCO2`, the GI50 was 0.0232 µM and the TGI was 3.69 µM.

On to `COc1cc2c(c(OC)c1OC)-c1ncc3cc4c(cc3c1C2)OCO4`, for which the GI50 was 13.2 µM and the TGI was 32.6 µM.

Take `CCOC(=O)/C=C(/C)Sc1cc(O)c2ccccc2c1O`: the GI50 was 1.75 µM and the TGI is 3.28 µM.

With `COc1ccc(-n2c(C)cc(-c3ccccc3)c2C)cc1`, the GI50 was 1.56 µM and the TGI was determined as 5.58 µM.

In the case of `O=C(CSC1CCc2ccccc21)N/N=C/c1ccccc1O` (centres undefined), the GI50 was 5.87 µM and the TGI was more than 100 µM.

As to `CCOc1ccncc1[N+](=O)[O-]`, the TGI is more than 100 µM.

For `C=C1C(=O)OC2CC(C)C3(O)CCC(=O)C3(C)CC12` (centres undefined), the TGI was more than 100 µM.

For `O=C(Nc1ccc(F)cc1)c1cc(S(=O)(=O)Nc2nc3ccccc3o2)c(SCc2ccccc2)cc1Cl`, the GI50 is 16.3 µM and the TGI amounted to 30.7 µM.

As for `CN(CCO)c1ccc(N2Cc3ccccc3OC3=C2C(=O)c2c(O)ccc(O)c2C3=O)cn1`, the GI50 was 0.215 µM and the TGI was 0.478 µM.

Regarding `O=C1NC(=O)C(c2cccc([N+](=O)[O-])c2)=C1Nc1cc(Cl)c(O)c(Cl)c1`, the GI50 was more than 25 µM and the TGI is more than 25 µM.

In the case of `COC(=O)[C@@H](C)C[C@H](Cc1ccccc1)NC(=O)c1csc([C@@H](C[C@H](C(C)C)N(C)C(=O)[C@@H](NC(=O)[C@H]2CCCCN2C)C2CCCCC2)OC(C)=O)n1`, the GI50 is less than 0.0001 µM and the TGI came to 0.000368 µM.

`NCCSc1nc(-c2ccccc2)c(-c2ccccc2)o1` displayed a TGI of more than 100 µM.
